The text below walks through data of US20260327264A1, “PEPTIDE INHIBITORS OF INTERLEUKIN-23 RECEPTOR” (Zealand Pharma A/S, priority 2023, published 2026).

The subject of experiment [1] is IL-23 mediated STAT3 signalling (DB cells). Put plainly: Functional inhibition of IL-23 mediated STAT3 signalling (phospho-STAT3 Tyr705) in DB cells. The format is cell-based, human. Conditions: for IC50: Table 3-2, EC80 of hIL-23, read-out: hIL-23 (pSTAT3) antagonist IC50; for hIL-23 (pSTAT3) antagonist % inhibition: Table 3-2, maximal inhibitory response, EC80 of hIL-23. The text has this:
Upon binding of IL-23, the IL-23R forms a heterodimer signalling complex together with IL-12R β1, which through the JAK2/STAT3 pathway promotes phosphorylation of STAT3 to form phospho-STAT3.
For compounds tested in this assay, the response was normalized relative to control values to calculate the IC50 and maximal inhibitory response from a concentration response curve of the compound in presence of a fixed concentration of human IL-23.
The assay procedure was as follows. […] Following preincubation of the DB cells with inhibitor for 15 min in a cell incubator (37° C., 5% CO2), 20 μL of the prepared 3× the EC80 of hIL-23 solution was added to each well and incubated for 90 min in a cell incubator (37° C., 5% CO2). For some wells buffer only or IL-23 only corresponding to the EC80 was added to obtain readouts needed for normalization. To terminate the assay, the plate was spun at 1000 G for 5 min to pellet cells, the supernatant removed using an 8-channel manual pipette, and then added 50 μL/well Complete Lysis Buffer from the MSD STAT3 kit (Cat #K150SVD, Mesoscale) to the cell pellet. To completely lyse cells to release phospho-STAT3 for detection, the plate was shaken for 10 min at room temperature (500 rpm) sealed with aluminium foil and placed at −80° C. for a minimum of 15 min. Detection of the phospho-STAT3 level in the cell lysate from the individual wells was determined using the MSD STAT3 kit (Cat #K150SVD, Mesoscale) and read on a Meso QuickPlex SQ 120 plate reader (Mesoscale).
For data analysis raw data counts from the Meso QuickPlex SQ 120 plate reader were normalized relative to the response by the EC80 of hIL-23 alone (no compound added) and the buffer level.

In another experiment the target is T1, human IL-23R (Homo sapiens, UniProt Q5VWK5).
T1 construct: Nanoluc luciferase (Nluc); secretion signal encoded by the plasmid (not specified); expressed in transfected cells; crude membranes used in the assay
T1 sequence (Q5VWK5 22-629): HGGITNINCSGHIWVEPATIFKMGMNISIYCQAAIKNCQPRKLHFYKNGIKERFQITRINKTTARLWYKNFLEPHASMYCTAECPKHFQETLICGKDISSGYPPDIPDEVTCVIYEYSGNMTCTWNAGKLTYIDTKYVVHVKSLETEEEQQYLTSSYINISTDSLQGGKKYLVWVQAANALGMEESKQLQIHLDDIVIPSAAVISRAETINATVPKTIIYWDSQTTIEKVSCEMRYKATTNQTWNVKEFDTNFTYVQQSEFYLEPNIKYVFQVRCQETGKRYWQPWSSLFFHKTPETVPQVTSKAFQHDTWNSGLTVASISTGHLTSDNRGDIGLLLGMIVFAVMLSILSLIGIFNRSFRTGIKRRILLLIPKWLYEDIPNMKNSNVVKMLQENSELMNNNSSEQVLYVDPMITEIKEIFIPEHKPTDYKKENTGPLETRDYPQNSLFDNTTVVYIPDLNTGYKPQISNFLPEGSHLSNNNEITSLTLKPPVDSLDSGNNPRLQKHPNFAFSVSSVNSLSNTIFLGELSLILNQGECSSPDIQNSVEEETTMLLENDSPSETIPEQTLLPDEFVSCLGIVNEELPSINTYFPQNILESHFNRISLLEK
The experiment can be described thus: Binding assay: displacement of fluorophore (TAMRA)-labelled reference compound from human IL-23R (BRET, Nluc-IL23R fusion protein membranes). The note with it: read-out: % displacement (hIL-23R binding).

*1 amine or outer side, *2 acyl side, *3 side chain or, on linkers, in order; H or OH if unused. Where a SMILES comes first, the peptide text is derived from it. Bridges are numbered along the chain shown (N, C = ends). [ ]: non-standard residue; d: D form. 2Nal = N[C@@H](Cc1ccc2ccccc2c1)C(=O)O; AEF = NCCOc1ccc(C[C@H](N)C(=O)O)cc1; X1 = O=C(Cc1ccc(CN[*:1])cc1)[*:2]; 3Pal = N[C@@H](Cc1cccnc1)C(=O)O; αMeL = CC(C)C[C@](C)(N)C(=O)O; CH2COCH2 = O=C(C[*:1])C[*:2]; 3Amb = NCc1cccc(C(=O)O)c1; Dab = NCC[C@H](N)C(=O)O

Take `CC(C)C[C@@H]1NC(=O)[C@H](Cc2c[nH]c3ccccc23)NC(=O)[C@H](Cc2c[nH]c3ccccc23)NC(=O)[C@@H]2CSCC(=O)CSC[C@H](NC(=O)[C@H](CO)NC(=O)[C@@H](NC(=O)[C@@H](N)CC(=O)O)CCC(=O)NCCCC[C@@H](C(=O)N[C@@H](CCCNC(=N)N)C(N)=O)NC1=O)C(=O)N[C@@H](Cc1c[nH]c3ccccc13)C(=O)N[C@@H](CCC(N)=O)C(=O)N2` [Ref 4, H-DE(1c)SC(2a)WQC(2a)WWLK(1c)R-[NH2], reference compound] (HELM PEPTIDE1{D.E.S.C.W.Q.C.W.W.L.K.R.[am]}|CHEM1{[O=C(C[*:1])C[*:2]]}$PEPTIDE1,PEPTIDE1,2:R3-11:R3|PEPTIDE1,CHEM1,4:R3-1:R1|PEPTIDE1,CHEM1,7:R3-1:R2$$$V2.0): in experiment [1], the IC50 (commonly the concentration needed to halve the response being measured) is 850 nM and the “hIL-23 (pSTAT3) antagonist % inhibition” value was 87%. Moreover, the Emax on human IL-23R came out at 100%.
With `CC(=O)N[C@H]1CCCCNC(=O)CC[C@@H](C(=O)N[C@@H](CCCNC(=N)N)C(N)=O)NC(=O)[C@H](CC(C)C)NC(=O)[C@H](Cc2ccc3ccccc3c2)NC(=O)[C@H](Cc2c[nH]c3ccccc23)NC(=O)[C@@H]2CSCC(=O)CSC[C@H](NC(=O)[C@H](CO)NC1=O)C(=O)N[C@@H](Cc1c[nH]c3ccccc13)C(=O)N[C@@H](CCC(N)=O)C(=O)N2` [Ref 18, [Ac]-K(1c)SC(2a)WQC(2a)W[2-Nal]LE(1c)R-[NH2], reference compound] (HELM PEPTIDE1{[ac].K.S.C.W.Q.C.W.[O=C([C@H](Cc1ccc2ccccc2c1)N[*:1])[*:2]].L.E.R.[am]}|CHEM1{[O=C(C[*:1])C[*:2]]}$PEPTIDE1,PEPTIDE1,2:R3-11:R3|PEPTIDE1,CHEM1,4:R3-1:R1|PEPTIDE1,CHEM1,7:R3-1:R2$$$V2.0), in experiment [1], the IC50 was found to be 18 nM and the “hIL-23 (pSTAT3) antagonist % inhibition” value worked out at 97%. In addition, the Emax on human IL-23R came out at 103%.
The corresponding values for `CC(C)C[C@@H]1NC(=O)[C@H](Cc2ccc3ccccc3c2)NC(=O)[C@H](Cc2c[nH]c3ccccc23)NC(=O)[C@@H]2CSCC(=O)CSC[C@H](NC(=O)[C@H](CO)NC(=O)c3cccc(c3)CNC(=O)CC[C@@H](C(=O)N[C@@H](CCCNC(=N)N)C(N)=O)NC1=O)C(=O)N[C@@H](Cc1c[nH]c3ccccc13)C(=O)N[C@@H](CCC(N)=O)C(=O)N2` [Ref 37, [(3-Aminomethyl)benzoyl](1c)*SC(2a)WQC(2a)W[2-Nal]LE(1c)R-[NH2], reference compound] ([3Amb]SCWQCW[2Nal]LER-NH2; linker 3-6 via CH2COCH2; lactam N-10) are 45 nM, 89% and 103%.
The corresponding values for `CC(C)C[C@]1(C)NC(=O)[C@H](Cc2ccc3ccccc3c2)NC(=O)[C@H](Cc2ccc(OCCN)cc2)NC(=O)[C@@H]2CSCC(=O)CSC[C@H](NC(=O)[C@H](CO)NC(=O)c3cccc(c3)CNC(=O)CC[C@@H](C(=O)N[C@H](CCCNC(=N)N)C(N)=O)NC1=O)C(=O)N[C@@H](Cc1c[nH]c3ccccc13)C(=O)N[C@@H](CCC(N)=O)C(=O)N2` [Ref 41, [(3-Aminomethyl)benzoyl](1c)*SC(2a)WQC(2a)[Y(2-aminoethoxy)][2-Nal][2-Me-Leu]E(1c)[{d}R]-[NH2], reference compound] ([3Amb]SCWQC[AEF][2Nal][αMeL]E[dR]-NH2; linker 3-6 via CH2COCH2; lactam N-10) are 29 nM, 99% and 110%.
In the same order, the values of `CC(C)C[C@]1(C)NC(=O)[C@H](Cc2ccc3ccccc3c2)NC(=O)[C@H](Cc2ccc(OCCN)cc2)NC(=O)[C@@H]2CSCC(=O)CSC[C@H](NC(=O)[C@H](CO)NC(=O)Cc3ccc(cc3)CNC(=O)CC[C@@H](C(=O)N[C@@H](CCCNC(=N)N)C(N)=O)NC1=O)C(=O)N[C@@H](Cc1c[nH]c3ccccc13)C(=O)N[C@@H](CCC(N)=O)C(=O)N2` [Ref 52, [4-Aminomethyl-phenylacetyl](1c)*SC(2a)WQC(2a)[Y(2-aminoethoxy)][2-Nal][2-Me-Leu]E(1c)R-[NH2], reference compound] ([X1]SCWQC[AEF][2Nal][αMeL]ER-NH2; linker 3-6 via CH2COCH2; lactam N-10) are 7.8 nM, 103% and 100%.
Take `CC(C)C[C@]1(C)NC(=O)[C@H](Cc2ccc3ccccc3c2)NC(=O)[C@H](Cc2ccc(OCCN)cc2)NC(=O)[C@@H]2CSCC(=O)CSC[C@H](NC(=O)[C@H](CO)NC(=O)Cc3ccc(cc3)CNC(=O)CC[C@@H](C(=O)N[C@@H](CO)C(N)=O)NC1=O)C(=O)N[C@@H](Cc1c[nH]c3ccccc13)C(=O)N[C@@H](CCC(N)=O)C(=O)N2` [Ref 81, [4-Aminomethyl-phenylacetyl](1c)*SC(2a)WQC(2a)[Y(2-aminoethoxy)][2-Nal][2-Me-Leu]E(1c)S-[NH2], reference compound]: in experiment [1], the IC50 is 21 nM and the “hIL-23 (pSTAT3) antagonist % inhibition” value is 95%. Moreover, at human IL-23R, the Emax is 101%.
On to `CC(C)C[C@]1(C)NC(=O)[C@H](Cc2ccc3ccccc3c2)NC(=O)[C@H](Cc2ccc(OCCN)cc2)NC(=O)[C@@H]2CSCC(=O)CSC[C@H](NC(=O)[C@H](CO)NC(=O)Cc3ccc(cc3)CNC(=O)CC[C@@H](C(=O)N[C@@H](CCN)C(N)=O)NC1=O)C(=O)N[C@@H](Cc1c[nH]c3ccccc13)C(=O)N[C@@H](CCC(N)=O)C(=O)N2` [Ref 82, [4-Aminomethyl-phenylacetyl](1c)*SC(2a)WQC(2a)[Y(2-aminoethoxy)][2-Nal][2-Me-Leu]E(1c)[Dab]-[NH2], reference compound] ([X1]SCWQC[AEF][2Nal][αMeL]E[Dab]-NH2; linker 3-6 via CH2COCH2; lactam N-10), for which, in experiment [1], the IC50 is 11 nM and the “hIL-23 (pSTAT3) antagonist % inhibition” value came to 97%. The Emax on human IL-23R was 103%.
For `CC(C)C[C@]1(C)NC(=O)[C@H](Cc2ccc3ccccc3c2)NC(=O)[C@H](Cc2ccc(OCCN)cc2)NC(=O)[C@@H]2CSCC(=O)CSC[C@H](NC(=O)[C@H](CO)NC(=O)Cc3ccc(cc3)CNC(=O)CC[C@@H](C(=O)N[C@@H](CCN)C(=O)N[C@@H](Cc3cccnc3)C(N)=O)NC1=O)C(=O)N[C@@H](Cc1c[nH]c3ccccc13)C(=O)N[C@@H](CCC(N)=O)C(=O)N2` [Ref 120, [4-Aminomethyl-phenylacetyl](1c)*SC(2a)WQC(2a)[Y(2-aminoethoxy)][2-Nal][2-Me-Leu]E(1c)[Dab][3-(3-Pyridyl)-Ala]-[NH2], reference compound] ([X1]SCWQC[AEF][2Nal][αMeL]E[Dab][3Pal]-NH2; linker 3-6 via CH2COCH2; lactam N-10), the “hIL-23 (pSTAT3) antagonist % inhibition” value in experiment [1] stood at 101%. At human IL-23R, the Emax worked out at 94%.
Consider `CC(C)C[C@]1(C)NC(=O)[C@H](Cc2ccc3ccccc3c2)NC(=O)[C@H](Cc2ccc(OCCN)cc2)NC(=O)[C@@H]2CCNC(=O)CC[C@H](NC(=O)[C@H](CO)NC(=O)Cc3ccc(cc3)CNC(=O)CC[C@@H](C(=O)N[C@@H](CCN)C(N)=O)NC1=O)C(=O)N[C@@H](Cc1c[nH]c3ccccc13)C(=O)N[C@@H](CCC(N)=O)C(=O)N2` [Ref 125, [4-Aminomethyl-phenylacetyl](1c)*SE(2c)WQ[Dab](2c)[Y(2-aminoethoxy)][2-Nal][2-Me-Leu]E(1c)[Dab]-[NH2], reference compound], for which, in experiment [1], the IC50 turned out to be 21 nM and the “hIL-23 (pSTAT3) antagonist % inhibition” value came out at 98%. At human IL-23R, the Emax came to 101%.
